According to patent US20040186046A1, “Treatment of type 1 diabetes with PDE5 inhibitors” (Pfizer Inc, priority 2003, published 2004):

What was measured:
[1] = system: control and STZ-treated rats; assay: Plasma glucose in control and STZ-treated rats (model of Type 1 diabetes) on chronic sildenafil; format: in vivo, rat; conditions: for minimum glucose levels (Table 3), Change from vehicle / minimum glucose levels (Table 3), Sildenafil group / minimum plasma glucose (Table 2), Change from vehicle / minimum plasma glucose (Table 2), Sildenafil group: sildenafil 60 mg/kg/day sc; for minimum plasma glucose (Table 2), Change from vehicle / minimum plasma glucose (Table 2), Sildenafil group: average, week 2 to week 6; for statistical significance (p) of effect of sildenafil on minimum glucose levels / statistical significance (p) of effect of Sildenafil on average glucose: vs vehicle
Experimental: STZ is a nitrosamine which is toxic to the pancreatic β-cells and STZ-treated rats have been used as an experimental model for Type 1 diabetes (see e.g. Ari et al, Clin Sci (Colch) 1999:96:365).
(§1) To induce Type 1 diabetes, rats of 200-250 g were injected intra-peritoneally with streptozotocin (60 mg/kg) in citrate phosphate buffer, pH4.5 or the equivalent volume of vehicle. The development of non-keturonic hyperglycaemic diabetes was induced within 48 h and was confirmed by determining blood glucose levels in blood obtained from the tail vein of the rats at 48 h after STZ administration and monitored […] thereafter.
The Sildenafil-treated rats were divided in two group—normal and STZ-treated. In addition, there were two non-sildenafil groups—again normal and STZ treated. Throughout this period blood samples were taken from the tail vein on a weekly basis. These samples were taken prior to dosing so that trough concentrations could be estimated (ie at 6-8 h post dose). A further sample was taken at week 8 ([…] post dosing). Plasma from these blood samples, from all rats treated with sildenafil, and some controls, were assayed for sildenafil (and its n-desmethyl metabolite).
The plasma from these samples was stored at −20° C. and analysed for levels of glucose using the Roche/Hitachi 912 Clinical Chemistry Analyzer (Roche Diagnostics Corp., Indianapolis, Ind.) with kits supplied by Roche. All assays were conducted according to instructions provided by the manufacturers.

[2] = Sildenafil mean plasma concentration (free drug) in normal and STZ-treated rats on chronic sc dosing; format: in vivo, rat; conditions: chronic sildenafil 3 × 20 mg/kg sc/day
Experimental: as §1
Throughout this period blood samples were taken from the tail vein on a weekly basis. These samples were taken prior to dosing so that trough concentrations could be estimated (ie at 6-8 h post dose). A further sample was taken at week 8 ([…] post dosing).

U397 cells = conditions: statement quoted from U.S. Pat. No. 6,479,493, column 38; cited from earlier work

Sildenafil Mean plasma concentration (free drug) ([2]; Normal rats, 2 weeks (6-8 h post dose), n = 12): 36 nM
Sildenafil Mean plasma concentration (free drug) ([2]; Normal rats, 4 weeks (6-8 h post dose), n = 12): 45 nM
Sildenafil Mean plasma concentration (free drug) ([2]; Normal rats, 6 weeks (6-8 h post dose), n = 12): 45 nM
Sildenafil Mean plasma concentration (free drug) ([2]; Normal rats, 8 weeks (32-35 h post dose), n = 12): 28 nM
Sildenafil Mean plasma concentration (free drug) ([2]; STZ rats, 2 weeks (6-8 h post dose), N = 6-10): 79 nM
Sildenafil Mean plasma concentration (free drug) ([2]; STZ rats, 4 weeks (6-8 h post dose), N = 6-10): 41 nM
Sildenafil Mean plasma concentration (free drug) ([2]; STZ rats, 6 weeks (6-8 h post dose), N = 6-10): 57 nM
Sildenafil Mean plasma concentration (free drug) ([2]; STZ rats, 8 weeks (32-35 h post dose), N = 6-10): 11 nM
Structure (SMILES): CCCc1nn(C)c2c(=O)[nH]c(-c3cc(S(=O)(=O)N4CCN(C)CC4)ccc3OCC)nc12 [Sildenafil, 5-[2-ethoxy-5-(4-methyl-1-piperazinylsulphonyl)phenyl]-1-methyl-3-n-propyl-1,6-dihydro-7H-pyrazolo[4,3-d]pyrimidin-7-one]
minimum glucose levels (Table 3), Change from vehicle ([1]; Control rats): -13 mg/dL
minimum glucose levels (Table 3), Sildenafil group ([1]; Control rats): 176 mg/dL
minimum plasma glucose (Table 2), Change from vehicle ([1]; Control rats): -25 mg/dL
minimum plasma glucose (Table 2), Sildenafil group ([1]; Control rats): 190 mg/dL
statistical significance (p) of effect of sildenafil on minimum glucose levels ([1]; STZ-treated animals, statistically significant effect): < 0.01
minimum glucose levels (Table 3), Change from vehicle ([1]; STZ-treated rats): -269 mg/dL
minimum glucose levels (Table 3), Sildenafil group ([1]; STZ-treated rats): 462 mg/dL
minimum plasma glucose (Table 2), Change from vehicle ([1]; STZ-treated rats): -220 mg/dL
minimum plasma glucose (Table 2), Sildenafil group ([1]; STZ-treated rats): 583 mg/dL
statistical significance (p) of effect of Sildenafil on average glucose ([1]; STZ-treated rats): < 0.05
effect on average plasma glucose (in words) ([1]; control and STZ-treated rats, decrease greater in STZ-treated animals): lowered average glucose in both types of rat
statistical significance (p) of effect of Sildenafil on average glucose ([1]; control rats): < 0.01
statistical significance (p) of effect of sildenafil on minimum glucose levels ([1]; control rats, no statistically significant effect): > 0.10
induction of apoptosis (U397 cells): does not induce apoptosis
